One assay addresses T1, PLXDC2 (Homo sapiens, UniProt Q6UX71).
T1 construct: host or cells: PLXDC2-expressing cells
The experiment in a line: Gfi1b promotor luciferase receptor activation assay, PLXDC2-expressing cells (FIG. 18B). It counts as cell-based. The note with it: compound treatments 1 day. From the text: FIG. 18A-B show activation of PLXDC1 and PLXDC2 by small molecules. […] All compound treatments were done for 1 day. Basal promotor activity of the PLXDC1-expressing cells is defined as 1.
By linking its promotor to a luciferase reporter gene, this example developed a PLXDC1 receptor activation assay.

A further assay relates to tumor blood vessels. The experiment in a line: Tumor animal model, bolus IV injection (FIG. 23-26). The note with it: bolus IV injection at day 0. The class given is in vivo, mice. From the text: Treatment was done at day 0 by bolus IV injection. A. Raw data of tumor growth curves of the mice in the control group. B. Raw data of tumor growth curves of the mice in the treatment group. C. Comparison of the combined growth data of the control group and the treatment group.
Pictures of the whole animals in the experiment described in FIG. 11 show tumor morphological and color changes on day 1 and day 3. Treatment was done at day 0. Tumors in the treatment groups becomes darker in color on day 1 due to the destruction of tumor blood vessels and accumulation of blood in the tumors. Tumors in the treatment groups start to become yellower in color on day 3, consistent with the onset of tumor necrosis due to the lack of tumor blood vessels.
FIG. 25A-B show tumor morphological changes on live animals due to the treatment by PLXDC1-activating compound. Pictures of the whole animals in the experiment described in FIG. 11 show tumor morphological and color changes on day 7. Treatment was done at day 0. While the tumors in the control group have grown to large sizes, tumors in the treatment groups have highly shrunk in size and become yellow in color.
FIG. 26A-B show morphological changes of dissected tumors due to the treatment by PLXDC1-activating compound. Pictures of the dissected tumors in the experiment described in FIG. 11 show tumor morphological and color changes on day 7. […]

From patent US20250230226A1, “PLXDC1/PLXDC2 ACTIVATORS AND THEIR USE IN THE TREATMENT OF BLOOD VESSEL DISORDERS” (THE REGENTS OF THE UNIVERSITY OF CALIFORNIA, priority 2019, published 2025) come the findings set out here.

Each structure is given as a SMILES string.

T1 sequence (Q6UX71 31-529): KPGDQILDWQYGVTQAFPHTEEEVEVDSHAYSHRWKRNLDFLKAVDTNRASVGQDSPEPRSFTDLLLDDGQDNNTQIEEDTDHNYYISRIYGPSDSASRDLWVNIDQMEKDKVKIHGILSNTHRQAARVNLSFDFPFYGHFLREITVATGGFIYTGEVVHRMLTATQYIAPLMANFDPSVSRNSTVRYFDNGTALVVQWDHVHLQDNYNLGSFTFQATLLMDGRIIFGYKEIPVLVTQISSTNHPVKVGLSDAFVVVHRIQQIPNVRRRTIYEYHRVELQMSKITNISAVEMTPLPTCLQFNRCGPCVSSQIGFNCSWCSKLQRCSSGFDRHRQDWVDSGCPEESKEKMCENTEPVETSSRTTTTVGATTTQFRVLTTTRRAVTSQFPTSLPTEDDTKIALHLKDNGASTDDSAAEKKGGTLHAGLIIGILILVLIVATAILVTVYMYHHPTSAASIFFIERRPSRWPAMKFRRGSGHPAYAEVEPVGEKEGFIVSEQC

On to `CCCCCCCCCCCCCCOc1ccc(S(=O)(=O)c2cnc3ccc([S+](C)[O-])cc3c2N2CCC(N3CCC(N4CCN(C)CC4)CC3)CC2)cc1` (centres unmarked) [Compound 346], for which the “Gfi1b promotor activity in PLXDC2-expressing cells” value on PLXDC2 is “activated the promotor activity in PLXDC2-expressing cells”. Further, in the assay with tumor blood vessels, the “Tumor growth / shrinkage” value is on record as “shrank the tumors significantly”.
